≈ marks a conversion by molar mass, not a printed value. Where two headings read alike, the source gives them in different places.
What was measured:
Escherichia coli = experiment: Broth microdilution MIC, 50 clinical isolates (incl. ESBL, one NDM-1); assay type: cell-based
Method: Minimal inhibitory concentration (MIC) values were determined by broth microdilution or agar dilution in accordance with guidelines from the Clinical and Laboratory Standards Institute (CLSI; (1) “Methods for Dilution Antimicrobial Susceptibility Tests for Bacteria That Grow Aerobically; Approved Standard; 11th ed.” CLSI standard M07-A11, 2018; (2) “Performance Standards for Antimicrobial Susceptibility Testing; Twenty-Eighth Informational Supplement,” CLSI document M100-S28, 2018; and (3) “Methods for Antimicrobial Susceptibility Testing of Anaerobic Bacteria; Approved Standard—Eighth Edition,” CLSI document M11-A8, 2012).
Tested aerobically by broth microdilution: • Escherichia coli, n=50 • Klebsiella spp., n=50 • Pseudomonas aeruginosa, n=50 • Streptococcus spp., n=50 • Staphylococcus aureus, n=50 • Enterococcus faecalis, n=50 • Enterobacter aerogenes, n=50 • Proteus mirabilis, n=50
Broth microdilution testing of aerobic bacteria was conducted in cation-adjusted Mueller Hinton broth (MHBII). For testing streptococci, lysed horse blood (LHB) was added to MHBII broth at a final concentration of 3%. Where LHB was used, it was added after filtering.
Broth microdilution susceptibility testing in 96-well microplates was conducted in accordance with CLSI methods (1) and (2). Automated liquid handlers were used to conduct serial dilutions and liquid transfers, including the Multidrop 384 (Labsystems, Helsinki, Finland), Biomek 2000, and the Biomek FX (Beckman Coulter, Fullerton, Calif.). All wells in columns 2 through 12 of a standard 96-well microdilution plate (Costar 3795) were filled with 150 μL of the appropriate diluent. Then, 300 μL of the test agents were added to the wells of column 1 of the plates at 100× the highest final concentration to be tested. Serial two-fold dilutions were made across the rows through column 11 using the Biomek 2000. The wells of column 12 contained no drug and served as the growth control wells. This plate served as the “mother plate” from which MIC assay plates or “daughter plates” were made.
The daughter plates were loaded with 190 μL per well of the appropriate medium using the Multidrop 384. The daughter plates were created using the Biomek FX which transferred 2 μL of drug solution from each well of a mother plate to each corresponding well of the daughter plate in a single step. A standardized inoculum of each test organism was prepared per CLSI methods (1) to equal a 0.5 McFarland standard, followed by a dilution of 1:20 for aerobes and 1:10 for anaerobes. The plates were then inoculated with 10 μL of the diluted inoculum using the Biomek 2000 from low to high drug concentration, resulting in a final concentration of approximately 5×10^5 CFU/mL per well. An un-inoculated plate was incubated in parallel for each medium for the purpose of assessing solubility of the drug in the test media.
Inoculated plates were stacked 3 or 4 high, covered with a sterile lid on the top plate, placed into boxes with CO2 planchets (streptococci) or plastic bags (all other isolates). Plates were incubated at 35° C. for 16-24 hr in ambient air for aerobes or for 42-48 hr in the anaerobic environment of the Bactron II anaerobe chamber (Sheldon Manufacturing Co.; Cornelius, Oreg.). Following incubation, the microplates were removed from the incubator and viewed from the bottom using a plate viewer. The MIC values were read and recorded as the lowest concentration of drug that inhibited visible growth of the organism as per CLSI methods (1) and (2).

E. coli MMX 1312 = experiment: Time-kill assay; assay type: cell-based, Escherichia coli; details: 2×, 4×, 8× MIC; 2, 6, 24 hr
[1] = test system: three isolates each of E. coli, Streptococcus spp. and Bacteroides spp.; experiment: Time-kill assay, overall summary; assay type: cell-based
Method: MIC values were determined by broth microdilution in accordance with guidelines from the Clinical and Laboratory Standards Institute (CLSI; (1) “Methods for Dilution Antimicrobial Susceptibility Tests for Bacteria That Grow Aerobically; Approved Standard; 11th ed.,” CLSI standard M07, 2018; (2) “Performance Standards for Antimicrobial Susceptibility Testing; 28th ed.,” CLSI supplement M100, 2018).
During the time-kill study, the test flasks were sampled at 2, 6, and 24 hr for determination of viable counts using the track dilution method as described above. Bacteroides was also sampled at 48 hr. All E. coli plates were incubated for 20-24 hr at 35° C., Streptococci for 20-24 hr at 35° C. in a CO2 incubator, and Bacteroides for approximately 48 hr at 35° C. in the anaerobe chamber. Colonies were counted manually, and the CFU/mL was determined from the average count of the duplicate plates, followed by the calculation of the log10 CFU/mL. The limit of detection for the assay was 50 CFU/mL.

[2] = test system: E. coli (ATCC 25922, ATCC 35218, MMX 1312); experiment: Agar dilution MIC (spontaneous mutation study; strain in conditions); assay type: cell-based, Escherichia coli

Compound	MIC range (Escherichia coli) [µg/mL]	Mode (Escherichia coli) [µg/mL]	Cumulative percentage of isolates inhibited at MIC (Escherichia coli; 0.5 μg/mL) [%]	Number of test isolates at MIC (Escherichia coli; 0.5 μg/mL)	Cumulative percentage of isolates inhibited at MIC (Escherichia coli; 2 μg/mL) [%]	Number of test isolates at MIC (Escherichia coli; 2 μg/mL)	Cumulative percentage of isolates inhibited at MIC (Escherichia coli; 4 μg/mL) [%]	Number of test isolates at MIC (Escherichia coli; 4 μg/mL)	Cumulative percentage of isolates inhibited at MIC (Escherichia coli; 8 μg/mL) [%]	Number of test isolates at MIC (Escherichia coli; 8 μg/mL)	Cumulative percentage of isolates inhibited at MIC (Escherichia coli; 16 μg/mL) [%]	Number of test isolates at MIC (Escherichia coli; 16 μg/mL)	Cumulative percentage of isolates inhibited at MIC (Escherichia coli; 32 μg/mL) [%]	Number of test isolates at MIC (Escherichia coli; 32 μg/mL)	Cumulative percentage of isolates inhibited at MIC (Escherichia coli; 128 μg/mL) [%]	Number of test isolates at MIC (Escherichia coli; 128 μg/mL)	MIC50 (Escherichia coli) [µg/mL]	MIC90 (Escherichia coli) [µg/mL]	Cumulative percentage of isolates inhibited at MIC (Escherichia coli; 1 μg/mL) [%]	Number of test isolates at MIC (Escherichia coli; 1 μg/mL)	other results
COc1c(N2C[C@@H]3CCCN[C@@H]3C2)c(F)cc2c(=O)c(C(=O)O)cn(C3CC3)c12 [moxifloxacin]	0.015 to 128	0.03	60.0	2	64.0	2	66.0	1	70.0	2	88.0	9	98.0	5	100.0	1	–	–	–	–	Cumulative percentage of isolates inhibited at MIC (Escherichia coli; 0.015 μg/mL): 4.0%; Number of test isolates at MIC (Escherichia coli; 0.015 μg/mL): 2; Cumulative percentage of isolates inhibited at MIC (Escherichia coli; 0.03 μg/mL): 34.0%; Number of test isolates at MIC (Escherichia coli; 0.03 μg/mL): 15; Cumulative percentage of isolates inhibited at MIC (Escherichia coli; 0.06 μg/mL): 52.0%; Number of test isolates at MIC (Escherichia coli; 0.06 μg/mL): 9; MIC50 (Escherichia coli; Escherichia coli, read-out: MIC50): 0.06 µg/mL (≈ 0.149 µM); MIC90 (Escherichia coli; Escherichia coli, read-out: MIC90): 32 µg/mL (≈ 79.7 µM); Number of test isolates at MIC (Escherichia coli; […]): 1
CO[C@H]1/C=C/O[C@@]2(C)Oc3c(C)c(O)c4c(O)c(c5c(nc6cc(C)ccn65)c4c3C2=O)NC(=O)/C(C)=C\C=C\[C@H](C)[C@H](O)[C@@H](C)[C@@H](O)[C@@H](C)[C@H](OC(C)=O)[C@@H]1C [rifaximin]	1 to 32	8	–	–	6.0	2	34.0	14	80.0	23	98.0	9	100.0	1	–	–	8 (≈ 10.2 µM)	16 (≈ 20.4 µM)	2.0	1	time-kill kinetics outcome (bactericidal = ≥3 log reduction in CFU per mL) (E. coli MMX 1312): Regrowth was also observed for all concentrations; overall time-kill outcome [1]: bacteriostatic activity and regrowth was typically observed; Agar MIC ([2]; E. coli ATCC 25922): >4 µg/mL; Agar MIC ([2]; E. coli ATCC 35218): >4 µg/mL; Agar MIC ([2]; E. coli MMX 1312): 4 µg/mL; MIC values (agar dilution) ([2]; over evaluated E. coli isolates (range stated jointly with other groups)): ≥ 4 µg/mL
piperacillin/tazobactam [piperacillin-tazobactam]	–	2	6.0	2	64.0	19	74.0	5	78.0	2	80.0	1	86.0	3	96.0	2	2	64	26.0	10	% I (Escherichia coli): 12% ^; % R (Escherichia coli): 8%; % S (Escherichia coli): 80%; Cumulative percentage of isolates inhibited at MIC (Escherichia coli; 64 μg/mL): 92.0%; Number of test isolates at MIC (Escherichia coli; 64 μg/mL): 3; Cumulative percentage of isolates inhibited at MIC (Escherichia coli; >128 μg/mL): 100.0%; Number of test isolates at MIC (Escherichia coli; >128 μg/mL): 2; Cumulative percentage of isolates inhibited at MIC (Escherichia coli; ≤[…]): 2.0%; Number of test isolates at MIC (Escherichia coli; ≤[…]): 1
